Experimental data reported in patent US9227970B2, “Triazolopyridine compounds” (Hoffmann-La Roche Inc., priority 2011, dated 2016).

Molecular target: human PDE10A (Homo sapiens (Human), UniProt Q9Y233)
Experiment: human PDE10A full length Scintillation Proximity Assay (SPA)
Type: biochemical
Conditions: 50 nM cGMP + 50 nM [3H]-cGMP, 20 minutes at room temperature, read-out: PDE10A inhibition IC50
Description: The following test was carried out in order to determine the activity of the compounds of the present invention. […] The human PDE10A full length assay was performed in 96-well micro titer plates. […] A range of concentrations of the potential inhibitor was used to generate data for calculating the concentration of inhibitor resulting in 50% of the effect (e.g. […] Non-specific activity was tested without the enzyme. The reaction was initiated by the addition of the substrate solution (cGMP and [^3H]-cGMP) and allowed to progress for 20 minutes at room temperature. The reaction was terminated by adding 25 μl of YSi-SPA scintillation beads (GE Healthcare, cat. # RPNQ0150) in 18 mM zinc sulphate solution (stop reagent). […] Afterwards, radioactive counts were measured on a Perkin Elmer Top-Count Scintillation plate reader.

Sequence of human PDE10A (Q9Y233 other isoform, or with tags, fused parts or gaps): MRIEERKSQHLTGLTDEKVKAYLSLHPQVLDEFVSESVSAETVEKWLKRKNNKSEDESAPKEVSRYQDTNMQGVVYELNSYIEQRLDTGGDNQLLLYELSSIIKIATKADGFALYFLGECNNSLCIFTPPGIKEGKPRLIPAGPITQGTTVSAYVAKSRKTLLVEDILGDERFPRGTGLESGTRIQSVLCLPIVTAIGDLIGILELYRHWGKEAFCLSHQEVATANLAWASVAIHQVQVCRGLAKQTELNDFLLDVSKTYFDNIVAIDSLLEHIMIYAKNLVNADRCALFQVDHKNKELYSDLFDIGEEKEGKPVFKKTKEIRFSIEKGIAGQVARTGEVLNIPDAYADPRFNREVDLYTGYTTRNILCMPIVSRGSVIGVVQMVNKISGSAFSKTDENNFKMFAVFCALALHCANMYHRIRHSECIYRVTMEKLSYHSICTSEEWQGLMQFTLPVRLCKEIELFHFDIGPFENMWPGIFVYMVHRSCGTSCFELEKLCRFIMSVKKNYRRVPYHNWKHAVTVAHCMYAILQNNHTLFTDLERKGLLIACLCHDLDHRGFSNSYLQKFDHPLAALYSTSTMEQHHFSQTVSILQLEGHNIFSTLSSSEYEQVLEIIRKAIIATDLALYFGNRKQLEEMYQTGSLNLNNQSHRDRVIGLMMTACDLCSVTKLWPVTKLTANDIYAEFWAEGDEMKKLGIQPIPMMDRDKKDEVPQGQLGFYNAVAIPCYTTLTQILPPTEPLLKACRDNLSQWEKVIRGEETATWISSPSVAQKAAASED

Row | IC50 [nM] | Structure (SMILES)
1 | 1.2 | Cn1ncc(C(=O)N2CCCC2)c1C(=O)Nc1ccc2nc(N3CCCC3)nn2c1 [Example 34, 2-Methyl-4-(pyrrolidine-1-carbonyl)-2H-pyrazole-3-carboxylic acid (2-pyrrolidin-1-yl-[1,2,4]triazolo[1,5-a]pyridin-6-yl)-amide]
2 | 1 | CN(C(=O)c1cnn(C)c1C(=O)Nc1ccc2nc(N3CCCC3)nn2c1)C1CC1 [Example 35]
3 | 7.5 | COC1CCN(c2nc3ccc(NC(=O)c4c(C(=O)N5CCCC5)cnn4C)cn3n2)C1 (stereo not drawn) [Example 42, 2-Methyl-4-(pyrrolidine-1-carbonyl)-2H-pyrazole-3-carboxylic acid [2-(3-methoxy-pyrrolidin-1-yl)-[1,2,4]triazolo[1,5-a]pyridin-6-yl]-amide]
4 | 5.3 | CN(C)c1nc2ccc(NC(=O)c3c(C(=O)N(C)C4CC4)cnn3C)cn2n1 [Example 24, 2-Methyl-2H-pyrazole-3,4-dicarboxylic acid 4-(cyclopropyl-methyl-amide) 3-[(2-dimethylamino-[1,2,4]triazolo[1,5-a]pyridin-6-yl)-amide]]
5 | 17.9 | Cn1ncc(C(=O)N2CCCC2)c1C(=O)Nc1ccc2nc(-c3cccnc3)nn2c1 [Example 12, 1-Methyl-N-(2-(pyridin-3-yl)-[1,2,4]triazolo[1,5-a]pyridin-6-yl)-4-(pyrrolidine-1-carbonyl)-1H-pyrazole-5-carboxamide]
6 | 9.9 | CCN(C)C(=O)c1cnn(C)c1C(=O)Nc1ccc2nc(N(CC)CC)nn2c1 [Example 29, 2-Methyl-2H-pyrazole-3,4-dicarboxylic acid 3-[(2-diethylamino-[1,2,4]triazolo[1,5-a]pyridin-6-yl)-amide] 4-(ethyl-methyl-amide)]
7 | 7.2 | CN(C(=O)c1cnn(C)c1C(=O)Nc1ccc2nc(N3CCOCC3)nn2c1)C1CC1 [Example 18, 2-Methyl-2H-pyrazole-3,4-dicarboxylic acid 4-(cyclopropyl-methyl-amide) 3-[(2-morpholin-4-yl-[1,2,4]triazolo[1,5-a]pyridin-6-yl)-amide]]
8 | 4.9 | COC1CCN(c2nc3ccc(NC(=O)c4c(C(=O)N5CCC5)cnn4C)cn3n2)C1 (stereo not drawn) [Example 43, 4-(Azetidine-1-carbonyl)-2-methyl-2H-pyrazole-3-carboxylic acid [2-(3-methoxy-pyrrolidin-1-yl)-[1,2,4]triazolo[1,5-a]pyridin-6-yl]-amide]
9 | 43.6 | Cn1ncc(C(=O)N2CCC2)c1C(=O)Nc1ccc2nc(-c3cccnc3)nn2c1 [Example 10, 4-(Azetidine-1-carbonyl)-1-methyl-N-(2-(pyridin-3-yl)-[1,2,4]triazolo[1,5-a]pyridin-6-yl)-1H-pyrazole-5-carboxamide]
10 | 30.8 | CCN(C)C(=O)c1cnn(C)c1C(=O)Nc1ccc2nc(N3CCOCC3)nn2c1 [Example 16, 2-Methyl-2H-pyrazole-3,4-dicarboxylic acid 4-(ethyl-methyl-amide) 3-[(2-morpholin-4-yl-[1,2,4]triazolo[1,5-a]pyridin-6-yl)-amide]]
11 | 1.2 | Cn1ncc(C(=O)N2CCCC2)c1C(=O)Nc1ccc2nc(-c3ccccc3)nn2c1 [Example 2, 2-Methyl-4-(pyrrolidine-1-carbonyl)-2H-pyrazole-3-carboxylic acid (2-phenyl-[1,2,4]triazolo[1,5-a]pyridin-6-yl)-amide]
12 | 33.5 | CCN(C)C(=O)c1cnn(C)c1C(=O)Nc1ccc2nc(N(C)C)nn2c1 [Example 22, 2-Methyl-2H-pyrazole-3,4-dicarboxylic acid 3-[(2-dimethylamino-[1,2,4]triazolo[1,5-a]pyridin-6-yl)-amide] 4-(ethyl-methyl-amide)]
13 | 1.9 | CCN(C)C(=O)c1cnn(C)c1C(=O)Nc1ccc2nc(N3CCCC3)nn2c1 [Example 36]
14 | 25 | CN(C)c1nc2ccc(NC(=O)c3c(C(=O)N4CC(F)C4)cnn3C)cn2n1 [Example 23, 4-(3-Fluoro-azetidine-1-carbonyl)-2-methyl-2H-pyrazole-3-carboxylic acid (2-dimethylamino-[1,2,4]triazolo[1,5-a]pyridin-6-yl)-amide]
15 | 0.8 | Cn1ncc(C(=O)N2CCC2)c1C(=O)Nc1ccc2nc(N3CCCC3)nn2c1 [Example 33]
16 | 17 | COc1ncc(C2CC2)nc1C(=O)Nc1ccc2nc(-c3ccccc3)nn2c1 [Example 25, 6-cyclopropyl-3-methoxy-N-(2-phenyl-[1,2,4]triazolo[1,5-a]pyridin-6-yl)pyrazine-2-carboxamide]
17 | 15.4 | Cn1ncc(C(=O)N2CCCC2)c1C(=O)Nc1ccc2nc(N3CCOCC3)nn2c1 [Example 13, 2-Methyl-4-(pyrrolidine-1-carbonyl)-2H-pyrazole-3-carboxylic acid (2-morpholin-4-yl-[1,2,4]triazolo[1,5-a]pyridin-6-yl)-amide]

Row | IC50 [nM] | Structure (SMILES)
18 | 19.1 | CCN(CC)C(=O)c1cnn(C)c1C(=O)Nc1ccc2nc(N(CC)CC)nn2c1 [Example 30, 2-Methyl-2H-pyrazole-3,4-dicarboxylic acid 4-diethylamide 3-[(2-diethylamino-1,2,4]triazolo[1,5-a]pyridin-6-yl)-amide]
19 | 3.5 | COC1CCN(c2nc3ccc(NC(=O)c4c(C(=O)N(C)C5CC5)cnn4C)cn3n2)C1 (stereo not drawn) [Example 41, 2-Methyl-2H-pyrazole-3,4-dicarboxylic acid 4-(cyclopropyl-methyl-amide) 3-{[2-(3-methoxy-pyrrolidin-1-yl)-[1,2,4]triazolo[1,5-a]pyridin-6-yl]-amide}]
20 | 29.4 | CCN(CC)C(=O)c1cnn(C)c1C(=O)Nc1ccc2nc(N3CCC(OC)C3)nn2c1 (stereo not drawn) [Example 38]
21 | 7.9 | Cn1ncc(C(=O)N2CCC2)c1C(=O)Nc1ccc2nc(-c3cscn3)nn2c1 [Example 4, 4-(Azetidine-1-carbonyl)-1-methyl-N-(2-(thiazol-4-yl)-[1,2,4]triazolo[1,5-a]pyridin-6-yl)-1H-pyrazole-5-carboxamide]
22 | 63.8 | Cn1ncc(C(=O)N2CCOCC2)c1C(=O)Nc1ccc2nc(N3CCOCC3)nn2c1 [Example 14, 2-Methyl-4-(morpholine-4-carbonyl)-2H-pyrazole-3-carboxylic acid (2-morpholin-4-yl-[1,2,4]triazolo[1,5-a]pyridin-6-yl)-amide]
23 | 26.5 | Cn1ncc(C(=O)N2CC(F)C2)c1C(=O)Nc1ccc2nc(N3CCOCC3)nn2c1 [Example 17, 4-(3-Fluoro-azetidine-1-carbonyl)-2-methyl-2H-pyrazole-3-carboxylic acid (2-morpholin-4-yl-[1,2,4]triazolo[1,5-a]pyridin-6-yl)-amide]
24 | 47.3 | Cn1ncc(C(=O)O)c1C(=O)Nc1ccc2nc(-c3ccccc3)nn2c1 [Example 1, 1-Methyl-5-(2-phenyl-[1,2,4]triazolo[1,5-a]pyridin-6-ylcarbamoyl)-1H-pyrazole-4-carboxylic acid]
25 | 3.3 | CCN(CC)c1nc2ccc(NC(=O)c3c(C(=O)N4CCC4)cnn3C)cn2n1 [Example 28, 2-Methyl-4-(azetitine-4-carbonyl)-2H-pyrazole-3-carboxylic acid (2-diethylamino-[1,2,4]triazolo[1,5-a]pyridin-6-yl)-amide]
26 | 21.8 | CCN(CC)c1nc2ccc(NC(=O)c3c(C(=O)N4CCOCC4)cnn3C)cn2n1 [Example 26, 2-Methyl-4-(morpholine-4-carbonyl)-2H-pyrazole-3-carboxylic acid (2-diethylamino-[1,2,4]triazolo[1,5-a]pyridin-6-yl)-amide]
27 | 3.5 | CCN(CC)C(=O)c1cnn(C)c1C(=O)Nc1ccc2nc(N3CCCC3)nn2c1 [Example 37]
28 | 23.1 | COC1CCN(c2nc3ccc(NC(=O)c4c(C(=O)N5CCOCC5)cnn4C)cn3n2)C1 (stereo not drawn) [Example 39, 2-Methyl-4-(morpholine-4-carbonyl)-2H-pyrazole-3-carboxylic acid [2-(3-methoxy-pyrrolidin-1-yl)-[1,2,4]triazolo[1,5-a]pyridin-6-yl]-amide]
29 | 2.3 | CCN(CC)c1nc2ccc(NC(=O)c3c(C(=O)N(C)C4CC4)cnn3C)cn2n1 [Example 31]
30 | 17 | CCN(C)C(=O)c1cnn(C)c1C(=O)Nc1ccc2nc(N3CCC(OC)C3)nn2c1 (stereo not drawn) [Example 40, 2-Methyl-2H-pyrazole-3,4-dicarboxylic acid 4-(ethyl-methyl-amide) 3-{[2-(3-methoxy-pyrrolidin-1-yl)-[1,2,4]triazolo[1,5-a]pyridin-6-yl]-amide}]
31 | 2.2 | CCN(C)C(=O)c1cnn(C)c1C(=O)Nc1ccc2nc(-c3ccccc3)nn2c1 [Example 7, 2-Methyl-2H-pyrazole-3,4-dicarboxylic acid 4-(ethyl-methyl-amide) 3-[(2-phenyl-[1,2,4]triazolo[1,5-a]pyridin-6-yl)-amide]]
32 | 28.6 | CN(C)c1nc2ccc(NC(=O)c3c(C(=O)N4CCCC4)cnn3C)cn2n1 [Example 21, 2-Methyl-4-(pyrrolidine-1-carbonyl)-2H-pyrazole-3-carboxylic acid (2-dimethylamino-[1,2,4]triazolo[1,5-a]pyridin-6-yl)-amide]
33 | 2.5 | Cn1ncc(C(=O)N2CCOCC2)c1C(=O)Nc1ccc2nc(N3CCCC3)nn2c1 [Example 32, 2-Methyl-4-(morpholine-4-carbonyl)-2H-pyrazole-3-carboxylic acid (2-pyrrolidin-1-yl-[1,2,4]triazolo[1,5-a]pyridin-6-yl)-amide]

Tested on: not given
Experiment: not given
Conditions: not given

Row | melting point [°C] | Structure (SMILES)
34 | 251 | Cn1ncc(C(=O)N2CCCC2)c1C(=O)Nc1ccc2nc(-c3cccnc3)nn2c1 [Example 12, 1-Methyl-N-(2-(pyridin-3-yl)-[1,2,4]triazolo[1,5-a]pyridin-6-yl)-4-(pyrrolidine-1-carbonyl)-1H-pyrazole-5-carboxamide]
35 | 172 | CN(C(=O)c1cnn(C)c1C(=O)Nc1ccc2nc(N3CCOCC3)nn2c1)C1CC1 [Example 18, 2-Methyl-2H-pyrazole-3,4-dicarboxylic acid 4-(cyclopropyl-methyl-amide) 3-[(2-morpholin-4-yl-[1,2,4]triazolo[1,5-a]pyridin-6-yl)-amide]]
36 | 272 | Cn1ncc(C(=O)N2CCC2)c1C(=O)Nc1ccc2nc(-c3cccnc3)nn2c1 [Example 10, 4-(Azetidine-1-carbonyl)-1-methyl-N-(2-(pyridin-3-yl)-[1,2,4]triazolo[1,5-a]pyridin-6-yl)-1H-pyrazole-5-carboxamide]
37 | 210 | Cn1ncc(C(=O)N2CCCC2)c1C(=O)Nc1ccc2nc(-c3ccccc3)nn2c1 [Example 2, 2-Methyl-4-(pyrrolidine-1-carbonyl)-2H-pyrazole-3-carboxylic acid (2-phenyl-[1,2,4]triazolo[1,5-a]pyridin-6-yl)-amide]
38 | 185 | Cn1ncc(C(=O)N2CCCC2)c1C(=O)Nc1ccc2nc(N3CCOCC3)nn2c1 [Example 13, 2-Methyl-4-(pyrrolidine-1-carbonyl)-2H-pyrazole-3-carboxylic acid (2-morpholin-4-yl-[1,2,4]triazolo[1,5-a]pyridin-6-yl)-amide]
39 | 259 | Cn1ncc(C(=O)O)c1C(=O)Nc1ccc2nc(-c3ccccc3)nn2c1 [Example 1, 1-Methyl-5-(2-phenyl-[1,2,4]triazolo[1,5-a]pyridin-6-ylcarbamoyl)-1H-pyrazole-4-carboxylic acid]
